Results: the supplement of paper PMC10307832

Tests used:
Assay in all cases: relative viability (nuclei count vs DMSO), 5 days (fraction); higher = more cells survive
Omipalisib + Vorinostat = compound: COc1ncc(-c2ccc3nccc(-c4ccnnc4)c3c2)cc1NS(=O)(=O)c1ccc(F)cc1F [Omipalisib] + O=C(CCCCCCC(=O)Nc1ccccc1)NO [Vorinostat] (partner 1 µM)
Outline: (§1)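 Lung cancer cell lines in 1536-well plates got either a single drug or a fixed anchor-drug dose together with five library-drug doses (not always all listed) in √10 steps, by pin tool, on the day after seeding. Nuclei were counted after 5 days, and relative viability is the treated-to-vehicle ratio of nuclei counts. Values are medians of duplicate plates.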

Omipalisib + AZD7762 = compound: COc1ncc(-c2ccc3nccc(-c4ccnnc4)c3c2)cc1NS(=O)(=O)c1ccc(F)cc1F [Omipalisib] + NC(=O)Nc1cc(-c2cccc(F)c2)sc1C(=O)N[C@H]1CCCNC1 [AZD7762] (partner 0.2 µM)
Outline: as §1

Omipalisib + Dasatinib = compound: COc1ncc(-c2ccc3nccc(-c4ccnnc4)c3c2)cc1NS(=O)(=O)c1ccc(F)cc1F [Omipalisib] + Cc1nc(Nc2ncc(C(=O)Nc3c(C)cccc3Cl)s2)cc(N2CCN(CCO)CC2)n1 [Dasatinib] (partner 0.075 µM)
Outline: as §1

Omipalisib + Decitabine = compound: COc1ncc(-c2ccc3nccc(-c4ccnnc4)c3c2)cc1NS(=O)(=O)c1ccc(F)cc1F [Omipalisib] + Nc1ncn([C@H]2C[C@H](O)[C@@H](CO)O2)c(=O)n1 [Decitabine] (partner 2 µM)
Outline: as §1

Omipalisib + Linsitinib = compound: COc1ncc(-c2ccc3nccc(-c4ccnnc4)c3c2)cc1NS(=O)(=O)c1ccc(F)cc1F [Omipalisib] + C[C@]1(O)C[C@@H](c2nc(-c3ccc4ccc(-c5ccccc5)nc4c3)c3c(N)nccn32)C1 [Linsitinib] (partner 1 µM)
Outline: as §1

Omipalisib + Pictilisib = compound: COc1ncc(-c2ccc3nccc(-c4ccnnc4)c3c2)cc1NS(=O)(=O)c1ccc(F)cc1F [Omipalisib] + CS(=O)(=O)N1CCN(Cc2cc3nc(-c4cccc5[nH]ncc45)nc(N4CCOCC4)c3s2)CC1 [Pictilisib] (partner 1 µM)
Outline: as §1

Cell Line | relative viability (Omipalisib + Vorinostat; first compound 0.0003 µM) | relative viability (Omipalisib + Vorinostat; first compound 0.003 µM) | relative viability (Omipalisib + Vorinostat; first compound 0.03 µM) | relative viability (Omipalisib + AZD7762; first compound 0.0003 µM) | relative viability (Omipalisib + AZD7762; first compound 0.003 µM) | relative viability (Omipalisib + AZD7762; first compound 0.03 µM) | relative viability (Omipalisib + Dasatinib; first compound 0.0003 µM) | relative viability (Omipalisib + Dasatinib; first compound 0.003 µM) | relative viability (Omipalisib + Dasatinib; first compound 0.03 µM) | relative viability (Omipalisib + Decitabine; first compound 0.0003 µM) | relative viability (Omipalisib + Decitabine; first compound 0.003 µM) | relative viability (Omipalisib + Decitabine; first compound 0.03 µM) | relative viability (Omipalisib + Linsitinib; first compound 0.0003 µM) | relative viability (Omipalisib + Linsitinib; first compound 0.003 µM) | relative viability (Omipalisib + Linsitinib; first compound 0.03 µM) | relative viability (Omipalisib + Pictilisib; first compound 0.0003 µM) | relative viability (Omipalisib + Pictilisib; first compound 0.003 µM) | relative viability (Omipalisib + Pictilisib; first compound 0.03 µM)
NCI-H727 | 1.1 | 1.02 | 0.987 | 0.627 | 0.486 | 0.412 | 0.353 | 0.327 | 0.366 | 0.778 | 0.712 | 0.755 | 0.276 | 0.245 | 0.234 | 0.321 | 0.361 | 0.231
NCI-H1944 | 0.469 | 0.359 | 0.29 | 0.406 | 0.345 | 0.262 | 0.194 | 0.17 | 0.156 | 0.384 | 0.356 | 0.239 | 1.21 | 0.854 | 0.481 | 0.363 | 0.301 | 0.28
HCC-366 | 0.394 | 0.223 | 0.113 | 0.288 | 0.208 | 0.184 | 0.575 | 0.2 | 0.179 | 0.285 | 0.217 | 0.105 | 0.394 | 0.156 | 0.0479 | 0.137 | 0.1 | 0.0924
NCI-H460 | 0.653 | 0.617 | 0.0977 | 0.645 | 0.621 | 0.277 | 0.385 | 0.288 | 0.0813 | 0.41 | 0.286 | 0.247 | 0.509 | 0.232 | 0.0381 | 0.419 | 0.254 | 0.316
